Values of other authors as cited in patent US11491120B2, “Pharmacological prophylactics against stress-induced affective disorders in females” (The Trustees of Columbia University in the City of New York, priority 2017, dated 2022).

System: NMDAR
Settings: cited from earlier work

Question: Which “Antagonism of the NMDAR, relative strength” value does the source give for `CN[C@]1(c2ccccc2Cl)CCCCC1=O` [(S)-ketamine] here?
Answer: four-fold stronger antagonist
